Counter-ions that a name gives are not always drawn. Like-named read-outs stand apart in the source and are kept apart here.
How the values were obtained:
KMS-12-BM cell lines = assay: KMS12 #2 flow cytometry assay (phospho-BAD Ser112); format: cell-based; details: Homo sapiens, 110 min, read-out: KMS-12-Flow IC50 IP
Pim-2 = Pim-2 (Homo sapiens (Human), UniProt Q9P1W9); assay: Pim-Mn enzyme assay (HTRF, 384-well), Pim-2; format: biochemical; details: read-out: Pim-2-Mn IC50 IP
Pim-1 = Pim-1 (Homo sapiens (Human), UniProt P11309); assay: Pim-Mn enzyme assay (HTRF, 384-well), Pim-1; format: biochemical; details: read-out: Pim-1-Mn IC50 IP
Pim-1, sequence (P11309 whole entry): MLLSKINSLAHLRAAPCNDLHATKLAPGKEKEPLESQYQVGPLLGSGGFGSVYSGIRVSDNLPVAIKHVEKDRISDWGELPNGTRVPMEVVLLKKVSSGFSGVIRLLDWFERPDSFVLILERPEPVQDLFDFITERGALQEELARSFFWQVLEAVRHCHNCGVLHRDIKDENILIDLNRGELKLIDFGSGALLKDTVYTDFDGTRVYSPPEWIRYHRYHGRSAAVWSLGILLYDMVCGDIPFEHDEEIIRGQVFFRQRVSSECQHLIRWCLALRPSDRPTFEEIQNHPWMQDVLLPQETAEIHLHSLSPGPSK

[1] = KMS-12-BM cells, pBAD Ser112 by flow cytometry, 110 min with compound
[2] = Pim-2 enzyme 0.5 pM, ATP 1.5 μM, BAD (S112) 0.5 μM, HTRF, 22-point curve
[3] = Pim-1 enzyme 5 pM, ATP 1.5 μM, BAD (S112) 0.5 μM, HTRF, 22-point curve

Pim-2, sequence (Q9P1W9 whole entry): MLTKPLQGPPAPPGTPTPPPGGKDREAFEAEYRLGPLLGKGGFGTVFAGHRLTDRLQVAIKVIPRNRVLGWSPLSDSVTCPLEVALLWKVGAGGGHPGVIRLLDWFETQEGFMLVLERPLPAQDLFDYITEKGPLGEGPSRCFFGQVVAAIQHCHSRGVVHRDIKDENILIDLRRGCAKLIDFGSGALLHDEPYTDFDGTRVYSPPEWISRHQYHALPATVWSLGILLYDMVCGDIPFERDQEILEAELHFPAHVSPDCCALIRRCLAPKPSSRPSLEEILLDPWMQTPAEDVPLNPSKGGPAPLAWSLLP

Row | IC50 (KMS-12-BM cell lines; [1]) | IC50 (Pim-2; [2]) | IC50 (Pim-1; [3]) | Structure (SMILES) | IC50 (Pim-2) | IC50 (Pim-1) | IC50 (KMS-12-BM cell lines; KMS-12-BM)
1 | > 40000 nM | 258 nM | 37.5 nM | Cc1nc2cccc(-c3cc4c([nH]3)[C@@H](C)NC4=O)c2nc1O[C@H](C)C(F)(F)F [Example 453, (6R)-6-methyl-2-(2-methyl-3-((1R)-2,2,2-trifluoro-1-methylethoxy)-5-quinoxalinyl)-5,6-dihydropyrrolo[3,4-b]pyrrol-4(1H)-one] |  |  | 
2 | 378 nM | 3.71 nM | 5.44 nM | Cc1nc2cccc(-c3cc4c(=O)[nH]ncc4[nH]3)c2nc1NC(C)(C)C [Example 423, 2-(3-(tert-butylamino)-2-methylquinoxalin-5-yl)-1H-pyrrolo[2,3-d]pyridazin-4(5H)-one] |  |  | 
3 | 11500 nM | 20.4 nM | 28.1 nM | Cc1nc2cccc(-c3cc4c([nH]3)CCNC4=O)c2nc1NC(C)(C)CNCCS(C)(=O)=O [Example 342, 2-(3-((1,1-dimethyl-2-((2-(methylsulfonyl)ethyl)amino)ethyl)amino)-2-methyl-5-quinoxalinyl)-1,5,6,7-tetrahydro-4H-pyrrolo[3,2-c]pyridin-4-one] |  |  | 
4 | 143 nM | 0.272 nM | 0.992 nM | Cc1nc2ccc(F)c(-c3cc4c([nH]3)CCNC4=O)c2nc1NC(C)(C)CO [Example 370, 2-(6-fluoro-3-((1-hydroxy-2-methylpropan-2-yl)amino)-2-methylquinoxalin-5-yl)-6,7-dihydro-1H-pyrrolo[3,2-c]pyridin-4(5H)-one] |  |  | 
5 | > 40000 nM | 16.4 nM | 11.5 nM | CC(C)Nc1nc2c(-c3cc4c([nH]3)CCNC4=O)cccc2c(=O)n1-c1cccnc1 [Example 403, 2-((1-methylethyl)amino)-8-(4-oxo-4,5,6,7-tetrahydro-1H-pyrrolo[3,2-c]pyridin-2-yl)-3-(3-pyridinyl)-4(3H)-quinazolinone] |  |  | 
6 | 121 nM | 0.917 nM | 1.34 nM | COCCOCCn1c(NC(C)(C)C)nc2c(-c3cc4c([nH]3)[C@@H](C)NC4=O)cccc2c1=O [Example 474, 2-(tert-butylamino)-3-(2-(2-methoxyethoxyl)ethyl)-8-((6R)-6-methyl-4-oxo-1,4,5,6-tetrahydropyrrolo[3,4-b]pyrrol-2-yl)-4(3H)-quinazolinone] |  |  | 
7 | > 40000 nM | 20.1 nM | 27.9 nM | CC(=O)Nc1nc2c(-c3cc4c([nH]3)CCNC4=O)cccc2nc1C [Example 445, N-(3-methyl-8-(4-oxo-4,5,6,7-tetrahydro-1H-pyrrolo[3,2-c]pyridin-2-yl)quinoxalin-2-yl)acetamide] |  |  | 
8 | 2350 nM | 8.9 nM | 9.23 nM | COC1=NCCc2[nH]c(-c3cccc4nc(C)c(NC(C)(C)C)nc34)cc21 [Example 351, N-tert-butyl-8-(4-methoxy-6,7-dihydro-1H-pyrrolo[3,2-c]pyridin-2-yl)-3-methyl-2-quinoxalinamine] |  |  | 
9 | 3390 nM | 7.94 nM | 5.4 nM | Cc1nc2cccc(-c3cc4c([nH]3)C(COCc3ccccc3)NC4=O)c2nc1NC(C)(C)C (racemic) [Example 468, (6R)-6-((benzyloxy)methyl)-2-(3-(tert-butylamino)-2-methyl-5-quinoxalinyl)-5,6-dihydropyrrolo[3,4-b]pyrrol-4(1H)-one and (6S)-6-((benzyloxy)methyl)-2-(3-(tert-butylamino)-2-methyl-5-quinoxalinyl)-5,6-dihydropyrrolo[3,4-b]pyrrol-4(1H)-one] |  |  | 
10 | 1360 nM | 14.7 nM | 9.94 nM | COCCOCC(C)(C)Nc1nc2c(-c3cc4c([nH]3)CCNC4=O)cccc2nc1C [Example 317, 2-(3-((2-(2-methoxyethoxy)-1,1-dimethylethyl)amino)-2-methyl-5-quinoxalinyl)-1,5,6,7-tetrahydro-4H-pyrrolo[3,2-c]pyridin-4-one] |  |  | 
11 | 11.3 nM | 0.0484 nM | 0.0376 nM | Cc1nc2ccc(F)c(-c3cc4c([nH]3)[C@@H](C)NC4=O)c2nc1NC1(C)CC1 [Example 379, (R)-2-(6-fluoro-2-methyl-3-((1-methylcyclopropyl)amino)quinoxalin-5-yl)-6-methyl-5,6-dihydropyrrolo[3,4-b]pyrrol-4(1H)-one] |  |  | 
12 | 7920 nM | 65.2 nM | 99 nM | Cc1nc2cccc(-c3cc4c([nH]3)CCN(C(=O)OC(C)(C)C)C4=O)c2nc1NC(C)(C)C [Example 291, tert-butyl 2-(3-(tert-butylamino)-2-methylquinoxalin-5-yl)-4-oxo-6,7-dihydro-1H-pyrrolo[3,2-c]pyridine-5(4H)-carboxylate] |  |  | 
13 | 11.5 nM | 0.162 nM | 0.184 nM | Cc1nc2ccc(F)c(-c3cc4c([nH]3)CCNC4=O)c2nc1NC1(C)CC1 [Example 369, 2-(6-fluoro-2-methyl-3-((1-methylcyclopropyl)amino)quinoxalin-5-yl)-6,7-dihydro-1H-pyrrolo[3,2-c]pyridin-4(5H)-one 2,2,2-trifluoroacetate] |  |  | 
14 | 21200 nM | 189 nM | 86 nM | Cc1nc2cccc(-c3cc4n(c3)C(=O)NC4)c2nc1NC(C)(C)C [Example 421, 6-(3-(tert-butylamino)-2-methylquinoxalin-5-yl)-1H-pyrrolo[1,2-c]imidazol-3(2H)-one] |  |  | 
15 | 49.6 nM | 0.0783 nM | 0.0339 nM | Cc1nc2cccc(-c3[nH]c4c(c3Cl)C(=O)NC4)c2nc1NC1(C)CC1 [Example 358, 3-Chloro-2-(2-methyl-3-((1-methylcyclopropyl)amino)quinoxalin-5-yl)-5,6-dihydropyrrolo[3,4-b]pyrrol-4(1H)-one] |  |  | 
16 | 54.6 nM | 0.218 nM | 0.325 nM | COCCn1c(NC(C)(C)C)nc2c(-c3cc4c([nH]3)CNC4=O)cccc2c1=O [Example 458, 2-(tert-butylamino)-3-(2-methoxyethyl)-8-(4-oxo-1,4,5,6-tetrahydropyrrolo[3,4-b]pyrrol-2-yl)-4(3H)-quinazolinone] |  |  | 
17 | 122 nM | 0.47 nM | 0.51 nM | Cc1nc2cccc(-c3cc4c([nH]3)C(CCO)NC4=O)c2nc1NC(C)(C)C (stereo not drawn) [Example 462, 2-(3-(tert-butylamino)-2-methyl-5-quinoxalinyl)-6-(2-hydroxyethyl)-5,6-dihydropyrrolo[3,4-b]pyrrol-4(1H)-one] |  |  | 

Row | Structure (SMILES) | IC50 (KMS-12-BM cell lines; [1]) | IC50 (Pim-2; [2]) | IC50 (Pim-1; [3]) | IC50 (Pim-2) | IC50 (Pim-1) | IC50 (KMS-12-BM cell lines; KMS-12-BM)
18 | CC(C)Nc1nc2c(-c3cc4c([nH]3)CCNC4=O)cccc2c(=O)n1-c1ccccn1 [Example 415, 2-((1-methylethyl)amino)-8-(4-oxo-4,5,6,7-tetrahydro-1H-pyrrolo[3,2-c]pyridin-2-yl)-3-(2-pyridinyl)-4(3H)-quinazolinone] | 5860 nM | 29.4 nM | 10.9 nM |  |  | 
19 | Cc1nc2ccc(F)c(-c3cc4c([nH]3)C3(CC3)NC4=O)c2nc1NC1(C)CC1 [Example 378, 2′-(6-fluoro-2-methyl-3-((1-methylcyclopropyl)amino)quinoxalin-5-yl)-1′H-spiro[cyclopropane-1,6′-pyrrolo[3,4-b]pyrrol]-4′(5′H)-one] | 16.1 nM |  |  | 0.0354 nM | 0.0295 nM | 
20 | Cc1nc2cccc(-c3cc4c([nH]3)CNC4=O)c2nc1NC1(C)CC1 [Example 357, 2-(2-Methyl-3-((1-methylcyclopropyl)amino)quinoxalin-5-yl)-5,6-dihydropyrrolo[3,4-b]pyrrol-4(1H)-one] | 15 nM | 0.57 nM |  |  | 0.463 nM | 
21 | Cc1nc2ccc(F)c(-c3cc4c(=O)[nH]ccc4[nH]3)c2nc1NC(C)(C)C [Example 371, 2-(3-(tert-butylamino)-6-fluoro-2-methylquinoxalin-5-yl)-1H-pyrrolo[3,2-c]pyridin-4(5H)-one 2,2,2-trifluoroacetate salt] | 148 nM |  |  | 0.0667 nM | 0.246 nM | 
22 | Cc1nc2cccc(-c3cc4c([nH]3)C3(CC3)NC4=O)c2nc1NCC(F)F [Example 331, 2′-(3-((2,2-difluoroethyl)amino)-2-methylquinoxalin-5-yl)-1′H-spiro[cyclopropane-1,6′-pyrrolo[3,4-b]pyrrol]-4′(5′H)-one] | 130 nM | 1.12 nM | 1.67 nM |  |  | 
23 | Cc1nc2cccc(-c3cc4c([nH]3)C3(CC3)NC4=O)c2nc1NC(C)(C)C [Example 324, 2′-(3-(tert-butylamino)-2-methyl-5-quinoxalinyl)-1′H-spiro[cyclopropane-1,6′-pyrrolo[3,4-b]pyrrol]-4′(5′H)-one] | 91.7 nM |  | 0.139 nM | 0.223 nM |  | 
24 | Cc1nc2cccc(-c3cc4n(n3)CCNC4=O)c2nc1NC(C)(C)C [Example 471, 2-(3-(tert-butylamino)-2-methylquinoxalin-5-yl)-6,7-dihydropyrazolo[1,5-a]pyrazin-4(5H)-one] | 15500 nM |  | 164 nM | 593 nM |  | 
25 | Cc1nc2cccc(-c3cc4c([nH]3)C3(CC3)NC4=O)c2nc1NC1CC1 [Example 325, 2′-(3-(cyclopropylamino)-2-methyl-5-quinoxalinyl)-1′H-spiro[cyclopropane-1,6′-pyrrolo[3,4-b]pyrrol]-4′(5′H)-one] |  | 0.242 nM |  |  | 0.293 nM | 68.8 nM
26 | Cc1nc2cccc(-c3cc4c([nH]3)C(C)(C)NC4=O)c2nc1NC(C)(C)C [Example 466, 2-(3-(tert-butylamino)-2-methyl-5-quinoxalinyl)-6,6-dimethyl-5,6-dihydropyrrolo[3,4-b]pyrrol-4(1H)-one] | 75.5 nM |  |  | 1.93 nM | 2.28 nM | 
27 | Cc1cccnc1-c1nc2c(-c3cc4c([nH]3)CCNC4=O)cccc2nc1C [Example 430, 2-(2-Methyl-3-(3-methylpyridin-2-yl)quinoxalin-5-yl)-6,7-dihydro-1H-pyrrolo[3,2-c]pyridin-4(5H)-one] | 24800 nM | 257 nM | 200 nM |  |  | 
